Patent publication US5624948A, “1-(2-benzimidazolyl)-1,5-diazacyclooctane compounds” (Kissei Pharmaceutical Co., Ltd., priority 1993, dated 1997)

Experiments:
[1] = test system: DNP-As-induced bronchoconstriction; assay: guinea pig antigen-induced bronchoconstriction model (DNP-As-induced, inhalation of compound); type: in vivo; conditions: 0.01 mg/ml solution, inhalation for 1 minute with ultrasonic nebulizer, DNP-As 100 μg protein/ml, 1 ml/kg, i.v.
Text: In the guinea pig antigen-induced bronchoconstriction model, the 1-(2-benzimidazolyl)-1,5-diazacyclooctane compounds of the present invention also show a potent antiallergic activity and a long-lasting efficacy.

bronchial tissues = conditions: topical formulation applied to the bronchia; cited from earlier work
in vitro = type: cell-based; conditions: human, nhek keratinocytes
Procedure: The 1-(2-benzimidazolyl)-1,5-diazacyclooctane compounds of the present invention show a weak cytotoxicity toward normal human epidermal keratinocytes (NHEK) growth. […] In comparison, the NR50 value of Astemizole is about 4.42 μM.

histamine H1-receptor = molecular target: T1, histamine H1-receptor (Cavia porcellus, UniProt P31389); assay: receptor binding assay in blocking 3H-pyrilamine binding to histamine H1-receptor site in guinea pig cerebellum; conditions: read-out: 50% inhibitory activity (concentration producing 50% reduction of the binding of the labeled ligand)
T1 construct: histamine H1 -receptor site in guinea pig cerebellum; from tissue; host or cells: guinea pig cerebellum
Text: The pharmacological activity of the 1-(2-benzimidazolyl)-1,5-diazacyclooctane compounds of the present invention can be confirmed by receptor binding assay in blocking 3H-pyrilamine binding to histamine H1 -receptor site in guinea pig cerebellum. The 1-(2-benzimidazolyl)-1,5-diazacyclooctane compounds of the present invention show a potent histamine H1 -receptor antagonistic activity, and produce a 50% inhibitory activity in a range of about 10^-10 to 10^-8 M (concentration producing 50% reduction of the binding of the labeled ligand).

T1 sequence (P31389 whole entry): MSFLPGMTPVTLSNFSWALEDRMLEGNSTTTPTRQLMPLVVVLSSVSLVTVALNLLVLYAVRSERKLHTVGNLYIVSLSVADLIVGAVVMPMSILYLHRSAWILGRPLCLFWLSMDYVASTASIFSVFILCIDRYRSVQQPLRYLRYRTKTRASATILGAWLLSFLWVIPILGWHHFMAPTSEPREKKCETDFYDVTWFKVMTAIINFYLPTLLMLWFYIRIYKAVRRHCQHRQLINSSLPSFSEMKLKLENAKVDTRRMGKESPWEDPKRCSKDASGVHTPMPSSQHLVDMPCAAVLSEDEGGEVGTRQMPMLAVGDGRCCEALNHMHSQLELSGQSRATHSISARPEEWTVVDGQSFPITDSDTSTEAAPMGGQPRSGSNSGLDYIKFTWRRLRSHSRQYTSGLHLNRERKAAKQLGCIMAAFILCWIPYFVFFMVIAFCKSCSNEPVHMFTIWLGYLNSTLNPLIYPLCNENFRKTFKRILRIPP

COc1ccc(CCN2CCC(Nc3nc4ccccc4n3Cc3ccc(F)cc3)CC2)cc1 [Astemizole]
inhibition of DNP-As-induced bronchoconstriction at 4 hours after inhalation [1]: about 37.5% | inhibition of DNP-As-induced bronchoconstriction at 8 hours after inhalation [1]: about 29.3% | irritation to bronchial tissues (in words) (bronchial tissues): strong irritation to bronchial tissues | CC50 (in vitro): ~4.42 µM

O=C(O)CCc1ccc(CCN2CCCN(c3nc4ccccc4n3Cc3ccc(F)cc3)CCC2)cc1 [Compound 16, 5-[2-[4-(2-Carboxyethyl)phenyl]ethyl]-1-[1-(4-fluorophenylmethyl)-1H-benzimidazol-2-yl]-1,5-diazacyclooctane]
inhibition of DNP-As-induced bronchoconstriction at 4 hours after inhalation [1]: about 54.6% | inhibition of DNP-As-induced bronchoconstriction at 8 hours after inhalation [1]: about 44.7% | IC50 (histamine H1-receptor): ~0.000575 µM | CC50 (in vitro): ~789 µM
